In the NIST ThermoML archive (doi:10.1016/j.jct.2017.05.022):

Tests used:
[1] = for specific volume / mass density: 101.33 kPa; for specific volume: X-ray diffraction; for mass density: Liquid, Vibrating tube method
[2] = Molar enthalpy of transition or fusion; details: Crystal; DSC
[3] = Solid-liquid equilibrium temperature; details: Crystal, DTA

O=C(OCCN1CCOCC1)c1cccnc1Nc1cccc(C(F)(F)F)c1
[1]
Details | Glass transition temperature [°C] | Normal melting temperature [°C] | specific volume [m3/kg]
100 K, Crystal | – | – | 0.0006857
125 K, Crystal | – | – | 0.0006872
150 K, Crystal | – | – | 0.0006912
175 K, Crystal | – | – | 0.000693
200 K, Crystal | – | – | 0.0006968
225 K, Crystal | – | – | 0.0006995
250 K, Crystal | – | – | 0.0007035
273 K, Crystal | – | – | 0.0007063
298.2 K, Crystal | – | – | 0.0007115
315 K, Crystal | – | – | 0.0007135
320 K, Crystal | – | – | 0.0007145
325 K, Crystal | – | – | 0.0007147
330 K, Crystal | – | – | 0.0007156
332 K, Crystal | – | – | 0.0007166
335 K, Crystal | – | – | 0.0007171
337 K, Crystal | – | – | 0.0007171
340 K, Crystal | – | – | 0.0007177
342 K, Crystal | – | – | 0.0007184
347 K, Crystal | – | – | 0.0007192
Crystal, DTA | – | 75.0 | –
Glass, DSC | -23.7 | – | –

Details | Solid-liquid equilibrium temperature [K] | mass density [kg/m3]
[1], 323.15 K | – | 1262.9
[1], 325.65 K | – | 1260.6
[1], 328.15 K | – | 1258.4
[1], 330.65 K | – | 1256.2
[1], 333.15 K | – | 1254
[1], 335.15 K | – | 1252.2
[1], 337.65 K | – | 1249.9
[1], 340.15 K | – | 1247.7
[1], 342.65 K | – | 1245.4
[1], 345.15 K | – | 1243.2
[1], 347.65 K | – | 1240.9
[1], 350.15 K | – | 1238.7
[1], 352.65 K | – | 1236.4
[1], 355.16 K | – | 1234.2
[1], 357.65 K | – | 1231.9
[1], 360.15 K | – | 1229.7
[1], 362.65 K | – | 1227.4
[3], 100 kPa | 348.1 | –
[3], 32000 kPa | 358.5 | –
[3], 58000 kPa | 366.9 | –
[3], 79000 kPa | 374.5 | –
[3], 115000 kPa | 382.7 | –
[3], 140000 kPa | 390.7 | –
[3], 155000 kPa | 396 | –
[3], 201000 kPa | 403.7 | –
[3], 244000 kPa | 421.5 | –

Details | Molar enthalpy of transition or fusion [kJ/mol]
[2] | 35.3
